Experimental data published in patent US20120010075A1 (priority 2009, published 2012).
Like-named read-outs stand apart in the source and are kept apart here.

How the values were obtained:
Phytophthora infestans = assay type: in vivo, Phytophthora infestans on tomato (Outdoor Girl)
[1] = test system: Leptosphaeria nodorum (glume blotch of wheat); test: Cu-hydrazone complexes versus parent hydrazones against glume blotch of wheat (Example 32, Table 8); assay type: in vivo, Leptosphaeria nodorum on wheat (cultivar Yuma); details: Parastagonospora nodorum, 200 ppm spray, inoculated after 24 h
[2] = hydrazone 200 μM + CuCl2 200 μM
[3] = hydrazone 200 μM + CuCl2 400 μM
[4] = hydrazone 200 μM + CuCl2 800 μM
[5] = hydrazone 200 μM + CuSO4 200 μM
[6] = hydrazone 200 μM + CuSO4 400 μM
[7] = hydrazone 200 μM + CuSO4 800 μM
[8] = hydrazone 400 μM + CuCl2 200 μM
[9] = hydrazone 400 μM + CuCl2 400 μM
[10] = hydrazone 400 μM + CuCl2 800 μM
[11] = hydrazone 400 μM + CuSO4 200 μM
[12] = hydrazone 400 μM + CuSO4 400 μM
[13] = hydrazone 400 μM + CuSO4 800 μM

## O=C(N/N=C/c1cc(Cl)cc(Cl)c1O)c1ccccc1 [Example 16]
Phytophthora infestans; hydrazone 50 μM + CuSO4 50 μM
  % Control of Tomato Late Blight: 67.7%
  % Control of Tomato Late Blight, predicted (in brackets, Colby): 15.5%
Phytophthora infestans; hydrazone 50 μM + CuSO4 200 μM
  % Control of Tomato Late Blight: 72.9%
  % Control of Tomato Late Blight, predicted (in brackets, Colby): 55.4%
Phytophthora infestans; hydrazone 50 μM + CuSO4 400 μM
  % Control of Tomato Late Blight: 78.0%
  % Control of Tomato Late Blight, predicted (in brackets, Colby): 78.8%
Phytophthora infestans; hydrazone 50 μM + CuSO4 800 μM
  % Control of Tomato Late Blight: 91.6%
  % Control of Tomato Late Blight, predicted (in brackets, Colby): 84.8%
Phytophthora infestans; hydrazone 50 μM alone, no copper
  % Control of Tomato Late Blight: 11.3%
Phytophthora infestans; hydrazone 200 μM + CuCl2 10 μM
  % Control of Tomato Late Blight: 67.8%
  % Control of Tomato Late Blight, predicted (in brackets, Colby): 22.7%
Phytophthora infestans; hydrazone 200 μM + CuCl2 50 μM
  % Control of Tomato Late Blight: 96.6%
  % Control of Tomato Late Blight, predicted (in brackets, Colby): 28.1%
Phytophthora infestans; [2]
  % Control of Tomato Late Blight: 95.8%
  % Control of Tomato Late Blight, predicted (in brackets, Colby): 51.5%
Phytophthora infestans; [3]
  % Control of Tomato Late Blight: 90.8%
  % Control of Tomato Late Blight, predicted (in brackets, Colby): 65.4%
Phytophthora infestans; [4]
  % Control of Tomato Late Blight: 96.7%
  % Control of Tomato Late Blight, predicted (in brackets, Colby): 76.6%
Phytophthora infestans; hydrazone 200 μM + CuSO4 10 μM
  % Control of Tomato Late Blight: 78.0%
  % Control of Tomato Late Blight, predicted (in brackets, Colby): 22.7%
Phytophthora infestans; hydrazone 200 μM + CuSO4 50 μM
  % Control of Tomato Late Blight: 81.3%
  % Control of Tomato Late Blight, predicted (in brackets, Colby): 25.1%
Phytophthora infestans; [5]
  % Control of Tomato Late Blight: 93.2%
  % Control of Tomato Late Blight, predicted (in brackets, Colby): 60.4%
Phytophthora infestans; [6]
  % Control of Tomato Late Blight: 95.8%
  % Control of Tomato Late Blight, predicted (in brackets, Colby): 81.2%
Phytophthora infestans; [7]
  % Control of Tomato Late Blight: 97.5%
  % Control of Tomato Late Blight, predicted (in brackets, Colby): 86.5%
Phytophthora infestans; hydrazone 200 μM alone, no copper
  % Control of Tomato Late Blight: 21.4%
Phytophthora infestans; hydrazone 400 μM + CuCl2 10 μM
  % Control of Tomato Late Blight: 64.4%
  % Control of Tomato Late Blight, predicted (in brackets, Colby): 26.9%
Phytophthora infestans; hydrazone 400 μM + CuCl2 50 μM
  % Control of Tomato Late Blight: 91.7%
  % Control of Tomato Late Blight, predicted (in brackets, Colby): 32.0%
Phytophthora infestans; [8]
  % Control of Tomato Late Blight: 91.7%
  % Control of Tomato Late Blight, predicted (in brackets, Colby): 54.1%
Phytophthora infestans; [9]
  % Control of Tomato Late Blight: 99.8%
  % Control of Tomato Late Blight, predicted (in brackets, Colby): 67.3%
Phytophthora infestans; [10]
  % Control of Tomato Late Blight: 100.0%
  % Control of Tomato Late Blight, predicted (in brackets, Colby): 77.9%
Phytophthora infestans; hydrazone 400 μM + CuSO4 10 μM
  % Control of Tomato Late Blight: 41.5%
  % Control of Tomato Late Blight, predicted (in brackets, Colby): 26.9%
Phytophthora infestans; hydrazone 400 μM + CuSO4 50 μM
  % Control of Tomato Late Blight: 54.5%
  % Control of Tomato Late Blight, predicted (in brackets, Colby): 29.2%
Phytophthora infestans; [11]
  % Control of Tomato Late Blight: 87.2%
  % Control of Tomato Late Blight, predicted (in brackets, Colby): 62.6%
Phytophthora infestans; [12]
  % Control of Tomato Late Blight: 96.6%
  % Control of Tomato Late Blight, predicted (in brackets, Colby): 82.2%
Phytophthora infestans; [13]
  % Control of Tomato Late Blight: 98.3%
  % Control of Tomato Late Blight, predicted (in brackets, Colby): 87.3%
Phytophthora infestans; hydrazone 400 μM alone, no copper
  % Control of Tomato Late Blight: 25.7%
[1]
  pest or weed control at 200 ppm: 41%
